Assay results published in PMC5161622 (ACS synthetic biology, 2016).
Entries after “also recorded” stand apart in the source; their conditions may differ.

Columns and labels:
β-gly W33G [1] = molecular target: T1, β-gly W33G (Saccharolobus solfataricus, UniProt P22498, W33G); experiment: 19F NMR competition assay with 6-fluoroindole reporter, β-gly W33G; assay type: binding, Sulfolobus solfataricus; conditions: 2 mM 6-fluoroindole, 500 μM protein; for displacement of 6-fluoroindole reporter (19F peak sharpening): 5 mM competitor
β-gly W33G [2] = molecular target: T1, β-gly W33G; experiment: β-glycosidase enzyme assay, rescue of β-gly W33G by effector ligands; assay type: biochemical, Sulfolobus solfataricus; conditions: for rescue of enzyme activity (in words) / enhancement of initial velocity relative to apo enzyme: 2 mM effector; for rescue of enzyme activity (in words) / agonist class / concentration dependence of initial velocity / linkage term W (in words) / effector dissociation constant KD (in words): 750 μM FDGal; for agonist class: concentration dependence; for concentration dependence of initial velocity / linkage term W (in words) / effector dissociation constant KD (in words): up to 5 mM effector; for linkage term W (in words) / effector dissociation constant KD (in words): fit of concentration dependence
WT β-gly = molecular target: T2, WT β-gly (Saccharolobus solfataricus, UniProt P22498); experiment: 19F NMR reporter binding, wild type β-gly; parameters: species or system Sulfolobus solfataricus; conditions: 2 mM 6-fluoroindole, 500 μM WT protein
T2 sequence (P22498 1-489): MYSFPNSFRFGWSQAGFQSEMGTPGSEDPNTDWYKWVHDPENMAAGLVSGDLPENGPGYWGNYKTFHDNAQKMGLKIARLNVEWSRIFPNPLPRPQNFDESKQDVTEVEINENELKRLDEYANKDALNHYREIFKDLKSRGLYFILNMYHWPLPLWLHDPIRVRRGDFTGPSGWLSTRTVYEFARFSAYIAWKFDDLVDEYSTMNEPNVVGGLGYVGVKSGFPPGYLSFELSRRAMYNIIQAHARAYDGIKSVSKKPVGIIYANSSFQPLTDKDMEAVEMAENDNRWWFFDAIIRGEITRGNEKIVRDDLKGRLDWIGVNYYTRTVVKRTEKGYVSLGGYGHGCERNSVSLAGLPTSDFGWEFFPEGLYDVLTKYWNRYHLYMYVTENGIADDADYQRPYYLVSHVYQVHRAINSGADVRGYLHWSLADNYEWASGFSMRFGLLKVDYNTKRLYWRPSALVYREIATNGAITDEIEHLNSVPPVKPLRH

β-gly W33A = β-gly W33A (Saccharolobus solfataricus, UniProt P22498, W33A); experiment: β-glycosidase enzyme assay, rescue of β-gly W33A; assay type: biochemical, Sulfolobus solfataricus; conditions: 750 μM FDGal
β-gly W33G [3] = molecular target: T1, β-gly W33G; conditions: 10 mM indole, cited from earlier work
β-gly W33G_V37A = β-gly W33G_V37A (Saccharolobus solfataricus, UniProt P22498, V37A/W33G); experiment: β-glycosidase enzyme assay, rescue of β-gly W33G_V37A; assay type: biochemical, Sulfolobus solfataricus
[4] = fit of concentration dependence

T1 sequence (P22498 whole entry W33G): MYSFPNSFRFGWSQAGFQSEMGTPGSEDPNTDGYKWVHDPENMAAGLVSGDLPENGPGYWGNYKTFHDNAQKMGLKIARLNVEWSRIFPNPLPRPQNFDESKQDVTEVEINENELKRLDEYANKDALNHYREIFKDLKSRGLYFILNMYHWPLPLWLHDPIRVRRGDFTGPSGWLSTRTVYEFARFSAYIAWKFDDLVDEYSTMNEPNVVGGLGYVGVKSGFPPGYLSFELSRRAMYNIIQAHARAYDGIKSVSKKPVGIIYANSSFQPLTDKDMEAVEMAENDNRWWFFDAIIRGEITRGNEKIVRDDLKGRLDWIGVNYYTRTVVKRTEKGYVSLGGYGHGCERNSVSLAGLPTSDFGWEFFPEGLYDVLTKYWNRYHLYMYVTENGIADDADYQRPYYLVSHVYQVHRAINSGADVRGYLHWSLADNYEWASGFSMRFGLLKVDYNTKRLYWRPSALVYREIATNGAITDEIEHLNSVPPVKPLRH
β-gly W33A, sequence (P22498 whole entry W33A): as the sequence (P22498 whole entry W33G) above, with G33A counted along it
β-gly W33G_V37A, sequence (P22498 whole entry W33G/V37A): as the sequence (P22498 whole entry W33G) above, with V37A counted along it

Structure (SMILES) | rescue of enzyme activity (in words) (β-gly W33G [2]) | displacement of 6-fluoroindole reporter (19F peak sharpening) (β-gly W33G [1]) | agonist class (β-gly W33G [2]) | concentration dependence of initial velocity (β-gly W33G [2]) | linkage term W (in words) (β-gly W33G [2]) | linkage term W (in words) (β-gly W33A; [4]) | also measured
Fc1ccc2cc[nH]c2c1 [6-fluoroindole] | very similar level as indole itself |  |  |  |  |  | 19F signal of reporter upon addition of protein (β-gly W33G [1]; covalent substrate analog attached): considerable peak broadening; 19F signal of reporter upon addition of protein (WT β-gly): no change to this peak
CNc1ccccc1 [N-methylaniline] | intermediate rescue | analogous peak sharpening | partial agonists | dose-dependent increases in the initial velocity | superior W value | highest value of W | rescue of enzyme activity (in words) (β-gly W33A): better than either indole or 3-methylindole; binding affinity KD (in words) (β-gly W33A; [4]): poor binding affinity
c1ccc2[nH]ccc2c1 [indole] | about twice the activity of 5-methylindole | signal sharpens | full agonist | dose-dependent increases in the initial velocity | highest linkage term (W) | lower for W33A than for W33G | enhancement of initial velocity relative to apo enzyme (β-gly W33G [2]; FDGal substrate 250 μM): better rescue with 2 mM indole than with 2 mM 3-methylindole; ligand efficiency (binding free energy per non-hydrogen atom) (β-gly W33G [2]; binding to β-gly W33G): −0.31 kcal/mol·atom; restoration of kcat/Km relative to wild type (β-gly W33G [3]; W33G alone 730-fold decrease): completely restored; restoration of wild type activity (β-gly W33G [3]): fully restored wild type activity
Cc1ccc2[nH]ccc2c1 [5-methylindole] |  |  |  |  |  |  | rescue of enzyme activity (in words) (β-gly W33G_V37A; 2 mM effector, 750 μM FDGal): superior over indole; ligand efficiency (binding free energy per non-hydrogen atom) (β-gly W33G_V37A; 5-methylindole / β-gly W33G_V37A switch): −0.43 kcal/mol·atom; binding affinity KD (in words) (β-gly W33G_V37A; fit of concentration dependence, 750 μM FDGal): almost an order of magnitude tighter than that of indole
Fc1ccc2[nH]ccc2c1 [5-fluoroindole] |  |  |  | enhanced β-glycosidase activity at each of the concentrations we tested | W favors indole |  | effector dissociation constant KD (in words) (β-gly W33G [2]): KD favors 5-fluoroindole
Cc1cc2ccccc2[nH]1 [2-methylindole] | no increase in activity over the apo enzyme | very little, if any, peak sharpening; also recorded: does not bind to this site |  |  |  |  | 
Cc1c[nH]c2ccccc12 [3-methylindole] | most rescue; also recorded: the next best rescuing compound | analogous peak sharpening | partial agonists | dose-dependent increases in the initial velocity | worse than for indole | lower for W33A than for W33G | enhancement of initial velocity relative to apo enzyme (β-gly W33G [2]; FDGlc substrate 250 μM, indole versus 3-methylindole): difference in rescue between these substrates is greatly reduced; effector dissociation constant KD (in words) (β-gly W33G [2]): slightly better than for indole; also recorded: superior KD; rescue of enzyme activity (in words) (β-gly W33A): rescued activity better than indole
